According to article PMC5698552 (mBio, 2017):

Key:
[1] = target: T1, UDP-galactopyranose mutase (BcUGM) (Botrytis cinerea, UniProt A0A384JG93); assay: product of purified recombinant BcUGM detected by HILIC and LC-MS/MS; assay type: biochemical
T1 construct: gene BCIN_05g00580

[2] = target: T1, UDP-galactopyranose mutase (BcUGM); assay: enzyme kinetics with purified recombinant BcUGM, varying UDP-Galp, HPLC-UV and LC-MS product detection; assay type: biochemical

T1 sequence (A0A384JG93 entry or part of it): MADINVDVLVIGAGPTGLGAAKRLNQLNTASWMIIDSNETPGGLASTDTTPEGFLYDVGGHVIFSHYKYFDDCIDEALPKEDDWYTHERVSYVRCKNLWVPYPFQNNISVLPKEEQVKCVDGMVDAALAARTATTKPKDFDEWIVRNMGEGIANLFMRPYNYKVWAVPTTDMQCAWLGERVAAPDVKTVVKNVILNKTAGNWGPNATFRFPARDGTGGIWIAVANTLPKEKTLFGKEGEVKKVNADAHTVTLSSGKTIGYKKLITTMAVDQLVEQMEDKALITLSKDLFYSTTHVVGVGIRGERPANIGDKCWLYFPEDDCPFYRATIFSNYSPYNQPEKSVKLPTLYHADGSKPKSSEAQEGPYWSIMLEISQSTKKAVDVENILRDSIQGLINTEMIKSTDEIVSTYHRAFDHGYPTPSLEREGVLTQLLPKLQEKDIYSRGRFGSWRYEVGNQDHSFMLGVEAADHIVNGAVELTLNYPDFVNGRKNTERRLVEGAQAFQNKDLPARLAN

Ki [2] [µM]	SMILES	product of purified recombinant BcUGM detected by HILIC and LC-MS/MS [1]
–	O=c1ccn([C@@H]2O[C@H](COP(=O)(O)OP(=O)(O)O[C@H]3O[C@@H]([C@H](O)CO)[C@H](O)[C@H]3O)[C@@H](O)[C@H]2O)c(=O)[nH]1 [UDP-galactofuranose]	transforming UDP-galactopyranose to UDP-galactofuranose in the presence of NADPH and flavin adenine dinucleotide (FAD)
222	C[C@H]1O[C@H](OP(=O)(O)OP(=O)(O)OC[C@H]2O[C@@H](n3ccc(=O)[nH]c3=O)[C@H](O)[C@@H]2O)[C@H](O)[C@@H](O)C1=O [UDP-KDG]	–
